Each structure is given as a SMILES string.

The subject of one test is Streptomyces scabies. Nature of the test: Antibacterial agar test (B7). It is filed as cell-based. The settings on record: 50 ppm; 5 days.
Test [1] relates to Tetranychus telarius (red spider mites, eggs). Put plainly: Pest toxicity test. The test is classed as in vivo. As to conditions: 0.1% by weight; French bean; 3 days.
Test [2] relates to Phaedon cochleariae (mustard beetles). Nature of the test: Pest toxicity test. The settings on record: in vivo. It is filed as in vivo.
The subject of another test is Lettuce. Put plainly: Herbicidal test, pre- and post-emergence. It is filed as in vivo. The settings on record: 10 kg/ha; scale 0 to 3 (complete kill).
For test [3], the system named is Aedes aegypti (mosquito larvae). Put plainly: Pest toxicity test. The test is classed as in vivo. As to conditions: 0.01% by weight; water; 1 day.
Test [4] has as its system Pieris brassicae (cabbage white caterpillars). Nature of the test: Pest toxicity test. It is filed as in vivo. The settings on record: 0.1% by weight, 2 days.
Test [5] relates to Corynebacterium michiganense. Put plainly: Antibacterial agar test (B2). It is filed as cell-based. As to conditions: 50 ppm; 5 days. As for the experimental part:
(§1) This Example illustrates the activity of compounds used as the active ingredients of compositions according to the invention against a variety of plant bacterial diseases and fungal post-harvest saprophytic diseases. In a test for such activity, 5 milligrams of the compound to be tested was dissolved or suspended in 10 ml. of acetone and enough of this solution or suspension was added to 18 ml. of nutrient agar (for the bacterial diseases) or 16 ml. of 2% malt agar (for the fungal diseases) to give a final concentration of 50 parts per million of the compound under test. A streptomycin preparation (2 ml. containing 100 units per ml.) was added to the malt agar to prevent bacterial contamination of the fungal tests.
(§2) The agar preparations were dried overnight in Petri dishes and inoculated the following morning with the bacterial or fungal diseases using a multipoint inoculator. The antibacterial activity was assessed after 5 days and the antifungal activity after 6 days. The results of the tests are set out in Table 16 (anti bacterial activity) and Table 17 (antifungal activity). The results are graded as in Example 1 above.

Test [6] deals with Tetranychus telarius (red spider mites, adults). Put plainly: Pest toxicity test. It is filed as in vivo. As to conditions: 0.1% by weight; French bean; 3 days.
Another test deals with Aphis fabae. Nature of the test: Pest toxicity test. It is filed as in vivo. The settings on record: 0.1% by weight; broad bean; 2 days.
In another test the test system is Uncinula necator (vine). Put plainly: Fungicidal test against foliar disease D (foliage spray plus soil drench). The settings on record: 10 days; for Amount of disease grading, disease D (Table 4): 100 ppm spray and drench. The test is classed as in vivo.
A further test concerns Erwinia carotovora. Put plainly: Antibacterial agar test (B4). It is filed as cell-based. The settings on record: 50 ppm; 5 days.
Test [7] relates to Plutella maculipennis (diamond back moth larvae). Put plainly: Pest toxicity test. It is filed as in vivo. As to conditions: in vivo.
In the next test the test system is Xanthomonas oryzae. It is filed as cell-based. As to conditions: 50 ppm; 5 days.
Test [8] deals with Puccinia recondita (wheat). Put plainly: Fungicidal test against foliar disease A (foliage spray plus soil drench). The test is classed as in vivo. The settings on record: 10 days; for Amount of disease grading, disease A (Table 4): 100 ppm spray and drench.
The subject of test [9] is Musca domestica (houseflies). Put plainly: Pest toxicity test, contact test. The test is classed as in vivo. The settings on record: 0.1% by weight; milk/sugar; 2 days; flies sprayed directly.
The test system of the next test is Maize. Put plainly: Herbicidal test, pre- and post-emergence. It is filed as in vivo. The settings on record: 10 kg/ha; scale 0 to 3 (complete kill).
The subject of the next test is Wheat. Nature of the test: Herbicidal test, pre- and post-emergence. The test is classed as in vivo. The settings on record: 10 kg/ha; scale 0 to 3 (complete kill).
The next test concerns Pseudomonas syringae. Put plainly: Antibacterial agar test (B6). The test is classed as cell-based. The settings on record: 50 ppm; 5 days.
In test [10] the test system is Piricularia oryzae (rice). The test is classed as in vivo. The settings on record: 7 days; for Amount of disease grading, disease E (Table 4): 100 ppm spray and drench.
For the next test, the system named is Megoura viceae. Nature of the test: Pest toxicity test. It is filed as in vivo. As to conditions: 0.1% by weight; broad bean; 2 days.
Another test deals with Tomato. Put plainly: Herbicidal test, pre- and post-emergence. The test is classed as in vivo. The settings on record: 10 kg/ha; scale 0 to 3 (complete kill).
Test [11] relates to Aedes aegypti (mosquito adults). Nature of the test: Pest toxicity test. The test is classed as in vivo. As to conditions: 0.01% by weight; plywood; 1 day.
Test [12] has as its system Agrobacterium tumifaciens. Nature of the test: Antibacterial agar test (B1). The settings on record: 50 ppm; 5 days. The test is classed as cell-based.
The test system of test [13] is Plasmopara viticola (vine). Put plainly: Fungicidal test against foliar disease C (foliage spray plus soil drench). It is filed as in vivo. The settings on record: 10 days; for Amount of disease grading, disease C (Table 4): 100 ppm spray and drench.
The next test deals with Xanthomonas malvacearum. Put plainly: Antibacterial agar test (B3). The test is classed as cell-based. The settings on record: 50 ppm; 5 days. How it is done:
as §1, §2

The test system of test [14] is Phytophthora infestans (tomato). It is filed as in vivo. The settings on record: 3 days.
Where [15] appears, read: 50 ppm spray + 200 ppm soil drench.

Turning to `O=[N+]([O-])c1cc(Br)c(Nc2c(Cl)c(F)nc(F)c2Cl)c([N+](=O)[O-])c1` [Compound 40, 4(2-Bromo-4,6-dinitroanilino)-3,5-dichloro-2,6-difluoropyridine], the “Antibacterial activity grading B7” value in the test on Streptomyces scabies is 2 (6 to 25). The “Mortality grading (kill)” value in test [1] is 3 (3 represents over 90% kill); in test [2], 2 (key: O represents less than 30% kill; 1 represents 30 - 49% kill; 2 represents 60 - 90% kill; 3 represents over 90% kill; C indicates a chemosterilant effect.; A indicates an antifeeding effect.); in [3], 3 (3 represents over 90% kill); in [4], 0 (O represents less than 30% kill); in test [6], 3 (3 represents over 90% kill); in the test with Aphis fabae, 3 (3 represents over 90% kill). Further, the “Mortality grading (kill)” value in test [7] was 0 (key: O represents less than 30% kill; 1 represents 30 - 49% kill; 2 represents 60 - 90% kill; 3 represents over 90% kill; C indicates a chemosterilant effect.; A indicates an antifeeding effect.); in the test with Megoura viceae, 3 (3 represents over 90% kill); in test [11], 0 (O represents less than 30% kill). For the same compound, the “Damage to plants, post-emergence” value is given as 3 with Lettuce, 0 in the test with Maize, 0 in the test on Wheat and 1 in the test on Tomato. Besides, the “Damage to plants, pre-emergence” value is listed as 3 with Lettuce, 1 in the test on Maize, 1 in the test on Wheat and 3 with Tomato. Further, in test [5], the “Antibacterial activity grading B2” value was 2 (6 to 25). Also, the “Amount of disease grading, disease D (Table 4)” value (from here on “Amount … disease D (Table 4)”) in the test on Uncinula necator (vine) was 3 (0 to 5). Also, in the test on Erwinia carotovora, the “Antibacterial activity grading B4” value is recorded as 1 (26 to 60). Further, the “Antibacterial activity grading B5” value with Xanthomonas oryzae is reported as 2 (6 to 25). Moreover, the “Amount of disease grading, disease A (Table 4)” value (“Amount … disease A (Table 4)” for short) in test [8] is given as 0 (61 to 100). The “Mortality grading (kill), contact test” value in test [9] was 3 (3 represents over 90% kill). The “Antibacterial activity grading B6” value in the test with Pseudomonas syringae is listed as 1 (26 to 60). Besides, in [10], the “Amount of disease grading, disease E (Table 4)” value (“Amount … disease E (Table 4)” for short) was 1 (26 to 60). Moreover, in test [12], the “Antibacterial activity grading B1” value is 2 (6 to 25). The “Amount of disease grading, disease C (Table 4)” value (“Amount … disease C (Table 4)” for short) in [13] is listed as 3 (0 to 5). Moreover, the “Antibacterial activity grading B3” value in the test with Xanthomonas malvacearum is reported as 3 (0 to 5).

`O=[N+]([O-])c1cc([N+](=O)[O-])c(Nc2c(Cl)c(F)nc(F)c2Cl)cc1F` [Compound 6, 3,5-Dichloro-2,6-difluoro-4(2,4-dinitro-5-fluoroanilino)pyridine]: the “Amount of disease grading, disease B” value in test [14] (setting [15]) is reported as 3 (0 to 5). For the same compound, the “Antibacterial activity grading B7” value in the test with Streptomyces scabies is 1 (26 to 60). Moreover, the “Antibacterial activity grading B2” value in test [5] was 3 (0 to 5). In the test on Uncinula necator (vine) (setting [15]), the “Amount of disease grading, disease D” value is listed as 2 (6 to 25). Besides, in the test with Erwinia carotovora, the “Antibacterial activity grading B4” value is recorded as 1 (26 to 60). In addition, the “Antibacterial activity grading B5” value in the test on Xanthomonas oryzae was 2 (6 to 25). For the same compound, the “Amount of disease grading, disease A” value in [8] (setting [15]) is on record as 0 (61 to 100). In addition, the “Antibacterial activity grading B6” value in the test on Pseudomonas syringae is on record as 2 (6 to 25). Further, in [10] (setting [15]), the “Amount of disease grading, disease E” value is on record as 3 (0 to 5). In test [12], the “Antibacterial activity grading B1” value is 3 (0 to 5). Also, the “Amount of disease grading, disease C” value in test [13] (setting [15]) is reported as 3 (0 to 5). Moreover, the “Antibacterial activity grading B3” value with Xanthomonas malvacearum is 3 (0 to 5).

Take `O=[N+]([O-])c1ccc(Nc2c(Cl)c(F)nc(Cl)c2Cl)c(C(F)(F)F)c1` [Compound 44, 2-Fluoro-(4-nitro-2-trifluoromethylanilino)3,5,6-trichlorpyridine]: the “Antibacterial activity grading B7” value with Streptomyces scabies was 3 (0 to 5). Moreover, the “Mortality grading (kill)” value is 3 (3 represents over 90% kill) in test [1]; 0 (key: O represents less than 30% kill; 1 represents 30 - 49% kill; 2 represents 60 - 90% kill; 3 represents over 90% kill; C indicates a chemosterilant effect.; A indicates an antifeeding effect.) in test [2]; 3 (3 represents over 90% kill) in test [3]; 3 (3 represents over 90% kill) in test [4]; 3 (3 represents over 90% kill) in test [6]; 0 (O represents less than 30% kill) with Aphis fabae. The “Mortality grading (kill)” value is 0 (key: O represents less than 30% kill; 1 represents 30 - 49% kill; 2 represents 60 - 90% kill; 3 represents over 90% kill; C indicates a chemosterilant effect.; A indicates an antifeeding effect.) in test [7], 0 (O represents less than 30% kill) in the test on Megoura viceae and 0 (O represents less than 30% kill) in [11]. The “Damage to plants, post-emergence” value in the test with Lettuce is 3; with Maize it was 1; in the test on Wheat, 0; in the test on Tomato, 3. For the same compound, the “Damage to plants, pre-emergence” value in the test on Lettuce worked out at 2; in the test with Maize, 0; in the test on Wheat it was 3; in the test on Tomato, 3. For the same compound, the “Antibacterial activity grading B2” value in [5] was 3 (0 to 5). Besides, in the test on Uncinula necator (vine), the “Amount … disease D (Table 4)” value is given as 3 (0 to 5). Also, in the test on Erwinia carotovora, the “Antibacterial activity grading B4” value is recorded as 3 (0 to 5). In addition, the “Antibacterial activity grading B5” value in the test with Xanthomonas oryzae is recorded as 3 (0 to 5). For the same compound, the “Amount … disease A (Table 4)” value in test [8] was 2 (6 to 25). Further, in test [9], the “Mortality grading (kill), contact test” value is 3 (3 represents over 90% kill). Further, the “Antibacterial activity grading B6” value in the test on Pseudomonas syringae was 3 (0 to 5). In test [10], the “Amount … disease E (Table 4)” value is 0 (61 to 100). For the same compound, in test [12], the “Antibacterial activity grading B1” value is 3 (0 to 5). The “Amount … disease C (Table 4)” value in test [13] was 3 (0 to 5). Also, the “Antibacterial activity grading B3” value in the test with Xanthomonas malvacearum is reported as 3 (0 to 5).

Take `O=[N+]([O-])c1cc([N+](=O)[O-])c(Nc2c(Cl)c(Cl)nc(Cl)c2Cl)cc1F` [Compound 35, 4(5-Fluoro-2,4-dinitroanilino)tetrachloropyridine]: in [14] (100 ppm spray and drench), the “Amount of disease grading, disease B (Table 4)” value was 3 (0 to 5). Moreover, the “Antibacterial activity grading B7” value in the test with Streptomyces scabies is 2 (6 to 25). The “Antibacterial activity grading B2” value in test [5] is listed as 0 (61 to 100). Moreover, in the test with Uncinula necator (vine), the “Amount … disease D (Table 4)” value is listed as 0 (61 to 100). The “Antibacterial activity grading B4” value with Erwinia carotovora was 0 (61 to 100). The “Antibacterial activity grading B5” value in the test on Xanthomonas oryzae is 1 (26 to 60). For the same compound, the “Amount … disease A (Table 4)” value in test [8] is listed as 2 (6 to 25). In addition, the “Antibacterial activity grading B6” value in the test on Pseudomonas syringae is listed as 2 (6 to 25). The “Amount … disease E (Table 4)” value in test [10] was 2 (6 to 25). Besides, the “Antibacterial activity grading B1” value in test [12] is 0 (61 to 100). The “Amount … disease C (Table 4)” value in [13] is on record as 3 (0 to 5). The “Antibacterial activity grading B3” value in the test on Xanthomonas malvacearum is 0 (61 to 100).

For the origin of these results see patent US3965109A, “Certain aryl amino pyridines” (priority 1971, dated 1976).
